Several values for one entry are separate records, joined by “and”; a condition that tells them apart may be missing. Identical values can stand only once. ± gives the uncertainty stated by the source.
Assay: xn = mol fraction of the nth substance listed

CCCC[N+](CCCC)(CCCC)CCCC.O=S(=O)([O-])O + O=C1O[C@H]([C@@H](O)CO)C(O)=C1O + O
viscosity [mPa·s], 101 kPa
Settings | 298.15 K | 308.15 K | 318.15 K
x2 = 0.0003644, x1 = 0.0003601 | 0.908 ± 0.009 | 0.734 ± 0.008 | 0.61 ± 0.008
x2 = 0.0003645, x1 = 9.006e-05 | 0.901 ± 0.009 | 0.726 ± 0.008 | 0.603 ± 0.008
x2 = 0.000365, x1 = 0.0001801 | 0.903 ± 0.009 | 0.729 ± 0.008 | 0.605 ± 0.008
x2 = 0.0003656, x1 = 0.0002701 | 0.906 ± 0.009 | 0.731 ± 0.008 | 0.607 ± 0.008
x2 = 0.0006576, x1 = 0.0001801 | 0.91 ± 0.009 | 0.734 ± 0.008 | 0.608 ± 0.008
x2 = 0.0006584, x1 = 9.003e-05 | 0.908 ± 0.009 | 0.732 ± 0.008 | 0.606 ± 0.008
x2 = 0.0006587, x1 = 0.00027 | 0.912 ± 0.009 | 0.737 ± 0.008 | 0.611 ± 0.008
x2 = 0.0006597, x1 = 0.00036 | 0.915 ± 0.009 | 0.739 ± 0.008 | 0.614 ± 0.008
x2 = 0.0009539, x1 = 9.001e-05 | 0.913 ± 0.009 | 0.737 ± 0.008 | 0.611 ± 0.008
x2 = 0.0009554, x1 = 0.00018 | 0.917 ± 0.009 | 0.74 ± 0.008 | 0.612 ± 0.008
x2 = 0.0009567, x1 = 0.0003599 | 0.921 ± 0.009 | 0.745 ± 0.008 | 0.619 ± 0.008
x2 = 0.0009569, x1 = 0.00027 | 0.919 ± 0.009 | 0.742 ± 0.008 | 0.617 ± 0.008
x2 = 0.001253, x1 = 8.998e-05 | 0.92 ± 0.009 | 0.743 ± 0.008 | 0.615 ± 0.008
x2 = 0.001255, x1 = 0.0001799 | 0.922 ± 0.009 | 0.745 ± 0.008 | 0.616 ± 0.008
x2 = 0.001255, x1 = 0.0002699 | 0.924 ± 0.009 | 0.748 ± 0.008 | 0.621 ± 0.008
x2 = 0.001257, x1 = 0.0003598 | 0.928 ± 0.009 | 0.751 ± 0.008 | 0.624 ± 0.008
x2 = 0.001553, x1 = 8.995e-05 | 0.925 ± 0.009 | 0.747 ± 0.008 | 0.62 ± 0.008
x2 = 0.001556, x1 = 0.0001799 | 0.929 ± 0.012 | 0.75 ± 0.008 | 0.622 ± 0.011
x2 = 0.001558, x1 = 0.0002698 | 0.931 ± 0.009 | 0.754 ± 0.008 | 0.626 ± 0.008
x2 = 0.001561, x1 = 0.0003597 | 0.934 ± 0.009 | 0.757 ± 0.008 | 0.629 ± 0.008
x2 = 0.001859, x1 = 8.992e-05 | 0.931 ± 0.009 | 0.751 ± 0.008 | 0.625 ± 0.008
x2 = 0.00186, x1 = 0.0001798 | 0.934 ± 0.009 | 0.755 ± 0.008 | 0.627 ± 0.008
x2 = 0.001863, x1 = 0.0002697 | 0.938 ± 0.009 | 0.758 ± 0.008 | 0.631 ± 0.008
x2 = 0.001866, x1 = 0.0003596 | 0.94 ± 0.009 | 0.762 ± 0.008 | 0.634 ± 0.008

CCOS(=O)(=O)[O-].CC[n+]1ccn(C)c1 + O=C([O-])CC(O)(CC(=O)[O-])C(=O)[O-].[K+].[K+].[K+] + O
viscosity [mPa·s], 101.3 kPa
Settings | 293.15 K | 298.15 K | 303.15 K | 308.15 K | 313.15 K
x2 = 0, x1 = 0.001795 | 1.073 ± 0.071 | 0.96 ± 0.071 | 0.845 ± 0.071 | 0.751 ± 0.071 | 0.679 ± 0.071
x2 = 0, x1 = 0.002698 | 1.107 ± 0.071 | 0.987 ± 0.071 | 0.876 ± 0.071 | 0.788 ± 0.071 | 0.709 ± 0.071
x2 = 0, x1 = 0.003589 | 1.136 ± 0.071 | 1.016 ± 0.071 | 0.899 ± 0.071 | 0.811 ± 0.071 | 0.727 ± 0.071

CCOS(=O)(=O)[O-].CC[n+]1ccn(C)c1 + O=C([O-])c1ccccc1.[Na+] + O
viscosity [mPa·s], 101.3 kPa
Settings | 293.15 K | 298.15 K | 303.15 K | 308.15 K | 313.15 K
x2 = 0, x1 = 0.001795 | 1.073 ± 0.071 | 0.96 ± 0.071 | 0.845 ± 0.071 | 0.751 ± 0.071 | 0.679 ± 0.071
x2 = 0, x1 = 0.002698 | 1.107 ± 0.071 | 0.987 ± 0.071 | 0.876 ± 0.071 | 0.788 ± 0.071 | 0.709 ± 0.071
x2 = 0, x1 = 0.003589 | 1.136 ± 0.071 | 1.016 ± 0.071 | 0.899 ± 0.071 | 0.811 ± 0.071 | 0.727 ± 0.071

CCOS(=O)(=O)[O-].CC[n+]1ccn(C)c1 + OCC(O)CO
100 kPa
Settings | electrical conductivity [S/m] | viscosity [mPa·s]
298.15 K, x1 = 0.002 | 0.000368 ± 1.5e-05 | –
298.15 K, x1 = 0.004 | 0.00065 ± 3e-05 | –
298.15 K, x1 = 0.012 | 0.00204 ± 9e-05 | –
298.15 K, x2 = 0.123 | 0.396 ± 0.016 | 89.1 ± 2
298.15 K, x2 = 0.601 | 0.248 ± 0.01 | 91.5 ± 2.2
298.15 K, x2 = 0.98 | 0.00333 ± 0.00014 | –
303.15 K, x2 = 0.264 | – | 65 ± 1.4
303.15 K, x2 = 0.5 | – | 63.7 ± 1.4
303.15 K, x2 = 0.98 | – | 494 ± 18
313.15 K, x1 = 0.002 | 0.00114 ± 5e-05 | 279.6 ± 8.8
313.15 K, x1 = 0.004 | 0.002 ± 8e-05 | 274.6 ± 8.6
313.15 K, x2 = 0.958 | 0.0222 ± 0.0009 | 199 ± 5.7

[Cl-].c1c[nH+]c[nH]1 + OCC(O)CO
100 kPa
Settings | viscosity [mPa·s]
313.2 K, x1 = 0.1667 | 306 ± 24
313.2 K, x1 = 0.3333 | 154.5 ± 7.7
323.2 K, x1 = 0.25 | 107 ± 3.9
323.2 K, x1 = 0.3333 | 84 ± 2.2
333.2 K, x1 = 0.5 | 100.1 ± 3.2
343.2 K, x1 = 0.5 | 50.6 ± 0.7

CCOS(=O)(=O)[O-].CC[n+]1ccn(C)c1 + OCCN(CCO)CCO
Settings | viscosity [mPa·s]
303.15 K, 100 kPa, x2 = 0 | 75.7 ± 1.6

CCOS(=O)(=O)[O-].CC[n+]1ccn(C)c1 + OCCO
100 kPa
Settings | electrical conductivity | viscosity
293.15 K, x1 = 0.2999 | – | 20.52 ± 0.2 mPa·s
293.15 K, x2 = 0.406 | – | 41.6 ± 0.9 mPa·s
298.15 K, x1 = 0.001 | 0.0067 S/m and 0.0121 S/m | 16 ± 0.3 mPa·s and 16.9 ± 0.4 mPa·s
298.15 K, x2 = 0 | – | 95.9 ± 2.1 mPa·s
298.15 K, x2 = 0.597 | 0.95 ± 0.04 S/m | 21.7 ± 0.5 mPa·s
298.15 K, x2 = 0.851 | 0.72 ± 0.03 S/m | 14.8 ± 0.3 mPa·s
303.15 K, x1 = 0.001 | – | 13.8 ± 0.3 mPa·s
303.15 K, x1 = 0.5992 | – | 28.04 ± 0.46 mPa·s
303.15 K, x1 = 0.6994 | – | 37.14 ± 0.69 mPa·s
303.15 K, x2 = 0.792 | – | 13 ± 0.3 mPa·s
308.15 K, x1 = 0.1982 | – | 10.85 ± 0.08 mPa·s
308.15 K, x1 = 0.2999 | – | 12.62 ± 0.12 mPa·s
313.15 K, x1 = 0.001 | 0.0115 S/m and 0.0206 S/m | 9.15 ± 0.19 mPa·s and 9.54 ± 0.2 mPa·s
313.15 K, x1 = 0.003 | 0.0362 ± 0.0015 S/m | 9.48 ± 0.2 mPa·s
313.15 K, x1 = 0.008 | 0.097 ± 0.004 S/m | 9.49 ± 0.2 mPa·s
313.15 K, x1 = 0.1982 | – | 9.37 ± 0.07 mPa·s
313.15 K, x2 = 0.406 | 1.27 ± 0.05 S/m | 20.6 ± 0.5 mPa·s
313.15 K, x2 = 0.938 | 0.59 ± 0.02 S/m | 9.05 ± 0.19 mPa·s
318.15 K, x1 = 0.1982 | – | 8.15 ± 0.06 mPa·s
318.15 K, x1 = 0.4002 | – | 11.61 ± 0.14 mPa·s
318.15 K, x1 = 0.8001 | – | 27.31 ± 0.57 mPa·s
318.15 K, x1 = 0.8993 | – | 35.33 ± 0.81 mPa·s
323.15 K, x1 = 0.1003 | – | 6.66 ± 0.04 mPa·s
333.15 K, x1 = 0.1003 | – | 5.1 ± 0.03 mPa·s
333.15 K, x1 = 0.1982 | – | 5.59 ± 0.04 mPa·s
333.15 K, x1 = 0.5005 | – | 9.85 ± 0.14 mPa·s
338.15 K, x1 = 0.5992 | – | 10.45 ± 0.17 mPa·s
343.15 K, x1 = 0.5005 | – | 7.87 ± 0.11 mPa·s
343.15 K, x1 = 0.5992 | – | 9.34 ± 0.15 mPa·s
343.15 K, x1 = 0.8001 | – | 13.58 ± 0.28 mPa·s
